According to patent US11298422B2, “Treating tumors with TTFields and an aurora kinase inhibitor” (Novocure Limited, priority 2018, dated 2022):
Where two headings read alike, the source gives them in different places.

Experiments:
[1] = patients with advanced solid tumors, cited from earlier work
[2] = tested on: U87-MG^shp53; assay: Overall effect (surviving cells x colonies formed vs. control), U87-MG^shp53; type: cell-based, human; conditions: for dosage required to achieve an overall effect of 38%: U87-MG^shp53 (FIG. 1D); for overall effect, Observed TTFields + AZD1152 / overall effect, AZD1152: 72 h; for overall effect, Expected: expected value for the combination; for overall effect, AZD1152: surviving cells x colonies vs. control
Experimental: (§1) The effects of the combined treatment of TTFields and the Aurora B kinase inhibitor AZD1152 was tested in 3 different glioma cell lines: U87-MG, U87-MG^shp53 and U-251. TTFields ([…], 200 kHz) were applied for 72 hours using the Inovitro system. AZD1152 was added to the media in concentrations of up to 100 nmol/L. Cell counts, cell cycle, and clonogenic potential were determined at the end of treatment. Formation of multinuclear cells was determined using microscopic images of cells stained with crystal violet.
(§2) The effects of the combined treatment of TTFields and AZD1152 was tested using the following human glioma cell lines: U87-MG (ATCC), U-251 (ECACC) and U87-mG^shp53 (provided by Dr. Achim Temme). All cells were grown in a humidified incubator supplied with 5% CO2. Cells were maintained in EMEM, supplemented with 10% FBS, 2 mmol/L glutamine, Pen-Strep solution (100 units/ml Penicillin and 0.1 mg/ml Streptomycin), 1 mmol/L sodium pyruvate and 1% NEAA. U87-MG^shp53 cells were maintained under selection with […] geneticin. AZD1152 was obtained from Sigma, Israel.
(§3) TTFields (1.6 V/cm RMS, 200 kHz) were applied for 72 hours using the Inovitro system. At the end of treatment, inhibition of tumor cell growth was analyzed quantitatively based on cell count. Clonogenic survival of U87-MG, U87-MG^shp53 and U-251 was tested by plating triplicates of 300 cells/dish in 6 wells dishes. After 2-3 weeks, cells were stained with crystal violet and the number of clones was quantified. Overall effect was calculated by multiplying the percentage of surviving cells at the end of treatment with the percentage of colonies formed vs. control.

[3] = tested on: U87-MG^shp53; assay: Cytotoxicity assay (cell count at end of treatment), U87-MG^shp53; type: cell-based, human; conditions: for cytotoxic effect, Observed TTFields + AZD1152 / cytotoxic effect, AZD1152: 72 h; for cytotoxic effect, Observed TTFields + AZD1152: percentage of control; for cytotoxic effect, Expected: expected value for the combination; for cytotoxic effect, AZD1152: number of cells as percentage of control
Experimental: as §1, §2, §3

[4] = U87-MG^shp53, AZD1152 25 nM + TTFields 200 kHz 1.6 V/cm RMS
[5] = U87-MG^shp53, AZD1152 25 nM + TTFields
[6] = U87-MG^shp53, AZD1152 25 nM alone
[7] = U87-MG^shp53, AZD1152 50 nM + TTFields 200 kHz 1.6 V/cm RMS
[8] = U87-MG^shp53, AZD1152 50 nM + TTFields
[9] = U87-MG^shp53, AZD1152 50 nM alone
[10] = U87-MG^shp53, AZD1152 100 nM + TTFields 200 kHz 1.6 V/cm RMS
[11] = U87-MG^shp53, AZD1152 100 nM + TTFields
[12] = U87-MG^shp53, AZD1152 100 nM alone

**Q.** With `CCN(CCCOc1ccc2c(Nc3cc(CC(=O)Nc4cccc(F)c4)n[nH]3)ncnc2c1)CCOP(=O)(O)O` [AZD1152, Barasertib] as the compound, how does the “maximum tolerated AZD1152 dose” value ([1]; administered as two 2-h infusions (110 mg/day, days 1, 2, 15 and 16)) read?
**A.** 220 mg

**Q.** What about the “maximum tolerated AZD1152 dose” value ([1]; as a 48-h continuous infusion) of the same compound?
**A.** 150 mg

**Q.** What about the “dosage required to achieve an overall effect of 38%” value ([2]; combined with TTFields) of the same compound?
**A.** 25 nM

**Q.** What about the “dosage required to achieve an overall effect of 38%” value ([2]; in the absence of TTFields) of the same compound?
**A.** 70 nM

**Q.** What about the “overall effect, Observed TTFields + AZD1152” value [2, 4] of the same compound?
**A.** 39.0%

**Q.** And the “overall effect, Expected” value [2, 5]?
**A.** 51.0%

**Q.** What about the “overall effect, AZD1152” value [2, 6] of the same compound?
**A.** 79%

**Q.** What about the “overall effect, Observed TTFields + AZD1152” value [2, 7] of the same compound?
**A.** 13.0%

**Q.** What about the “overall effect, Expected” value [2, 8] of the same compound?
**A.** 33.9%

**Q.** And the “overall effect, AZD1152” value [2, 9]?
**A.** 52.5%

**Q.** What about the “overall effect, Observed TTFields + AZD1152” value [2, 10] of the same compound?
**A.** 2.5%

**Q.** What about the “overall effect, Expected” value [2, 11] of the same compound?
**A.** 7.1%

**Q.** What about the “overall effect, AZD1152” value [2, 12] of the same compound?
**A.** 11%

**Q.** And the “reduction of dosage required for a given level of overall effect when combined with TTFields” value ([2]; with respect to the dosage giving the same overall effect in the absence of an alternating electric field, 'can often be')?
**A.** at least 50%

**Q.** And the IC50 ([3]; Homo sapiens, U87-MG^shp53, AZD1152 alone, 72 hours)?
**A.** ~50 nM

**Q.** What about the “cytotoxic effect, Observed TTFields + AZD1152” value [3, 4] of the same compound?
**A.** 22.5%

**Q.** What about the “cytotoxic effect, Expected” value [3, 5] of the same compound?
**A.** 42.2%

**Q.** And the “cytotoxic effect, AZD1152” value [3, 6]?
**A.** 71%

**Q.** And the “cytotoxic effect, Observed TTFields + AZD1152” value [3, 7]?
**A.** 10.5%

**Q.** What about the “cytotoxic effect, Expected” value [3, 8] of the same compound?
**A.** 27.7%

**Q.** And the “cytotoxic effect, AZD1152” value [3, 9]?
**A.** 46.5%

**Q.** What about the “cytotoxic effect, Observed TTFields + AZD1152” value [3, 10] of the same compound?
**A.** 4.5%

**Q.** And the “cytotoxic effect, Expected” value [3, 11]?
**A.** 8.9%

**Q.** And the “cytotoxic effect, AZD1152” value [3, 12]?
**A.** 15%

**Q.** And the “cytotoxic effect of combined treatment of TTFields and AZD1152” value ([3]; U87-MG^shp53, 2-way ANOVA, p<0.001)?
**A.** significant enhancement of the cytotoxic effect
